Assay results from PubChem BioAssay (NCI).
Values joined by “and” are separate entries in the source; they are usually repeats but may differ in a detail not shown here. Equal values may be shown once.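 Results reflect a 48-hour exposure of cells in 96-well plates to compound at five concentrations. Abbreviation: GI50, concentration required for 50% inhibition of growth. TGI marks complete inhibition of growth.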

How the values were obtained:
Assay in all cases: NCI tumour cell line growth inhibition, 48 h
[1] = system: HOP-92 NSCLC
[2] = system: NCI-H460 lung
[3] = system: OVCAR-8 ovarian
[4] = system: SF-268 CNS
[5] = system: SN12C renal
[6] = system: DU-145 prostate
[7] = system: MDA-MB-231 breast
[8] = system: NCI/ADR-RES ovarian
[9] = system: PC-3 prostate
[10] = system: T-47D breast

SMILES	TGI [1]	TGI [2]	TGI [3]	TGI [4]	TGI [5]	GI50 [6]	TGI [6]	GI50 [1]	GI50 [7]	TGI [7]	GI50 [8]	TGI [8]	GI50 [9]	TGI [9]	GI50 [5]	GI50 [10]	TGI [10]	GI50 [3]	GI50 [4]	GI50 [2]
CS/C(=N\c1nccs1)NC(=O)c1cccc(Cl)c1	> 100 µM	> 100 µM	> 100 µM	> 100 µM	> 100 µM															
CN(C)c1ccc(C(=C2C=CC(=[N+](C)C)C=C2)c2ccc(N(C)C)cc2)cc1	0.461 µM	1.55 µM			1.43 µM and 0.902 µM	0.0783 µM	1.23 µM	0.145 µM	0.246 µM	1.26 µM	0.41 µM	2 µM	0.178 µM	0.963 µM	0.04 µM	0.157 µM	1.12 µM			
COc1ccc(-c2nn(-c3cccc(Cl)c3)cc2-c2cc(-c3ccccc3)nc(N)n2)cc1	4.77 µM		3.78 µM	18.9 µM	5.02 µM	10.5 µM	22.3 µM	1.06 µM			8.72 µM	31 µM	1.6 µM	6.56 µM	1.9 µM	4.49 µM	17.1 µM	1.9 µM	3.76 µM	
Cc1ccc(Sc2ccc(C)cc2[N+](=O)[O-])c([N+](=O)[O-])c1	> 100 µM	> 100 µM	> 100 µM	> 100 µM	> 100 µM															
COc1cc(C)c(O)c(C(=O)O)c1		> 100 µM	> 100 µM	> 100 µM	> 100 µM															
N.N.NCCCCCCN.O=C([O-])CC(=O)[O-].O=C([O-])CC(=O)[O-].[Pt+4].[Pt+4]	> 100 µM	> 100 µM	> 100 µM	> 100 µM	> 100 µM			> 100 µM							14.5 µM			> 100 µM	28.9 µM	6.59 µM
O=C(CCc1cc(-c2ccccc2)nc(=S)[nH]1)Nc1ccccc1[N+](=O)[O-]	> 100 µM	> 100 µM	> 100 µM	> 100 µM	> 100 µM															
CCOc1ccccc1/C=N\N=C(\N)N/N=C/c1ccccc1OCC		> 100 µM	> 100 µM	> 100 µM	> 100 µM	2.84 µM	> 100 µM		4.69 µM	> 100 µM	2.62 µM	> 100 µM	3.14 µM	> 100 µM	5.89 µM	3.73 µM	> 100 µM	3.76 µM	3.11 µM	3.16 µM
CCCc1cc(=O)n2c(C(=O)Nc3ccccc3OC)c(C(=O)Nc3ccc(F)cc3)sc2n1	4.73 µM	> 160 µM	20.7 µM	38 µM		13.3 µM	34.6 µM	1.43 µM	3.29 µM	11.2 µM	39.2 µM	> 160 µM	3.61 µM	12.9 µM		71.8 µM	> 160 µM	5.67 µM	14.3 µM	39.8 µM
O=c1cc(N=Nc2ccc(O)cc2)[nH]c(=O)[nH]1	> 100 µM	> 100 µM	> 100 µM	> 100 µM	> 100 µM		> 100 µM			> 100 µM		> 100 µM		> 100 µM						
Nc1cc(N)c2nc(-c3ccccc3)c(NCc3ccc(F)cc3)nc2c1	6.91 µM	25.6 µM	6.07 µM	7.54 µM	23.7 µM	1.5 µM	3.81 µM	3.32 µM	2.13 µM	5.08 µM	2.46 µM	5.76 µM	3.5 µM	15.6 µM	7.5 µM			2.66 µM	2.81 µM	4.05 µM
Cn1cc(-c2ccc(-c3cn(C)c4ccc(Cl)cc34)s2)c2cc(Cl)ccc21		> 100 µM	> 100 µM	> 100 µM	> 100 µM	> 100 µM	> 100 µM		> 100 µM	> 100 µM	> 100 µM	> 100 µM	> 100 µM	> 100 µM	> 100 µM			> 100 µM	> 100 µM	> 100 µM
C=C1CCC2[C@@H](CCC3[C@]2(C)CCC[C@]3(C)C(=O)OC)C1CCO (some centres undefined)	20.1 µM	37.2 µM	37.7 µM	29.1 µM	27.5 µM															
C=CCC(OCCOCC)c1cc(OCCOCC)ccc1OC (centres undefined)	> 100 µM	> 100 µM	> 100 µM	> 100 µM	> 100 µM															
COC(=O)C1=C(C(=O)OC)SC(=C(N=Nc2ccccc2)c2ccccc2)S1	> 100 µM	> 100 µM	> 100 µM	> 100 µM	> 100 µM															
CCN(CC)CC(C(=O)Nc1c(C)cccc1C)/C(C)=N\NC(=O)c1ccncc1 (centres undefined)	> 100 µM	> 100 µM	> 100 µM	> 100 µM	> 100 µM															
C/C=C/C=C/CCCCCCCCCCCCCC1(OC)C=CC(CC(=O)OC)OO1 (centres undefined)	4.12 µM	29.4 µM	14.5 µM	34 µM	26.3 µM													3.99 µM		
C=C1CCc2occ(C)c2C2C1C1=C(CC(C)C1=O)C1OC12C (centres undefined)	> 100 µM	> 100 µM	> 100 µM	> 100 µM	> 100 µM															
COC(=O)C1=C(O)c2cc3c(cc2[C@H](c2cc(OC)c(OC)c(OC)c2)C1C(=O)OC)OCO3 (some centres undefined)	> 100 µM	> 100 µM	> 100 µM	> 100 µM	88 µM															
CCCC(Sc1ccccc1)P(=O)(c1ccccc1)c1ccccc1 (centres undefined)	60.1 µM	> 100 µM	> 100 µM	> 100 µM	> 100 µM															
C[C@@H](NC1CCC[C@H]1O)c1ccccc1 (some centres undefined)	> 100 µM	> 100 µM	> 100 µM		> 100 µM															
O=C1c2ccccc2CC1C1(O)C(=O)Nc2ccccc21 (centres undefined)	> 100 µM	> 100 µM	> 100 µM	> 100 µM	> 100 µM															
